# Patent US20240358727A1, “MICROSCALE THERMOPHORESIS TO EVALUATE CHANNEL LIPID INTERACTIONS AND METHODS OF TREATING NAV CHANNELS RELATED DISEASES” (Northeastern University, priority 2023, published 2024)
# Entries after “also recorded” stand apart in the source; their conditions may differ.
# Target: T1, Nav1.5 (Homo sapiens, UniProt Q14524)
# T1 construct: expressed in transfected cells
# Assay: Whole-cell patch clamp of Nav1.5 stable cells with optogenetic PI-phosphatases and diC8PI(4,5)P2 in the pipette
# Assay type: cell-based
# Details: for left shift in the I-V relationship / shift in V½SSI / shift in V½act / V½SSI / V½act: 200 μM diC8PI(4,5)P2; for current density: 200 μM diC8PI(4,5)P2, −55 mV; for τinact / ILATE: diC8PI(4,5)P2; for ILATE: % of Ipeak
# Description: Nav1.5 channels were studied with Navβ1 (SCNIB, isoform b; NM_001037) in pRAT, a CMV driven vector. N-terminal CRY2-tagged pseudojanin in pMaX(+) vector was generated by Genscript (Piscataway, NY). Purified diC8PI(4,5)P2 was purchased from Echelon Biosciences.
# HEK293-T cells were purchased from American Type Culture Collection (ATCC, catalog no. CRL-3216). The cells were cultured in 60-mm dishes in Dulbecco's Modified Eagle Medium (DMEM) (Sigma-Aldrich) that was supplemented with a combination of 100 units/ml of penicillin, 100 μg/ml of streptomycin and 10% Fetal Bovine Serum (FBS). Stable cells were cultured in previously mentioned DMEM, penicillin, streptomycin, and FBS medium with addition of 2 μg/ml puromycin, 5 μg/ml blasticidin, 200 μg/ml geneticin (G418). Both cell lines were incubated at 5% CO2 at 37° C. 24 hours before transfection cells from either cell lines were seeded on glass coverslips in 35-mm dishes. Both cell lines were transfected in OptiMEM using polyethyleneimine (PEI) at a 1 μg of DNA: 4 μL PEI to 1 μg of DNA: 6 μL PEI ratio for 2-4 hours. HEK293-T cells were transfected with 1.5 μg of channel DNA and 1 μg of the beta subunit alone and alongside light-activated constructs. Stable cells were transfected with 1p g of the beta subunit alone and alongside light-activated constructs. Electrophysiology recordings were performed within 24-48 hours after transfection at room temperature.
# Both the HEK293-T, and Nav1.5 stable cells were studied under whole-cell patch clamp. Sodium currents were recorded using the Tecella Pico-2 amplifier (Tecella) and WinWCP software (University of Strathclyde) at a low pass (Bessel) filter of 9 kHz and sampled at 50 kHz frequencies. The borosilicate glass (Clark Kent) patch pipettes were pulled to a resistance of 2-4 MQ using the vertical puller (Narishige) when filled with internal solution. The internal solution contained (in mM): 60 CsCl, 80 CsF, 2 MgCl2·6H2O, 10 EGTA, 5 HEPES, 5 Na2ATP, pH 7.4 with CsOH. Cells were perfused through a multichannel gravity-driven perfusion manifold (Warner) with an extracellular solution containing (in mM): 130 NaCl, 5 CsCl, 1.2 MgCl2·6H2O, 1.5 CaCl2), 8 Glucose, 10 HEPES. Cells with a series resistance less than 15 MQ were studied.
# Current-voltage relationships were evoked by a 250-ms test pulse between −80 mV to 35 mV, in 5 mV increments. Steady-state inactivation was studied by holding cells at −120 mV and then comparing currents that were evoked by a 50 ms test pulse between −120 mV and −20 mV to those evoked by a 500 ms pre-pulse to 30 mV, in 10 mV increments. Normalized peak currents were then plotted against pre-pulse potential (mV). To determine voltage-dependence, the data was normalized and plotted against the driving force and fitted to a Boltzmann function, I=Imax(1+exp[V−V1/2/k]), where Imax is maximum current and k is the slope factor to generate normalized conductance-voltage (G-V) relationship. The ILATE was evoked by a single test pulse between −90 mV and −20 mV. ILATE was calculated from the last 10 ms of this 250 ms test pulse. From this recording protocol, the time constant for inactivation (T) was determined from a mono-exponential fit of normalized current amplitude using It=Imax+A [e^−t/τ], A is amplitude and t is time. All whole-cell currents were normalized to the capacitance of cell.
# Experiments were set up similar to those in Gada et al (2023). Optogenetic studies were conducted simultaneously alongside patch-clamp. Here the photoactivation of cells was conducted in the epifluorescence-mode to utilize continuous excitation from a broad-spectrum LED (Excelitas) through a 448/20 nm filter (Chroma), via a 20× objective lens (Olympus). A photometer (ThorLabs) was used to measure the light output which measured at 50 mW/cm^2. […]
# [1] = 200 μM diC8PI(4,5)P2 in pipette
# [2] = CRY2-5POCRL + CRY2-Sac2, BL vs control
# [3] = CRY2-5POCRL + CRY2-Sac2, control (before BL)
# [4] = CRY2-5POCRL, control (before BL)
# [5] = CRY2-5POCRL, diC8PI(4,5)P2 enriched vs BL without diC8PI(4,5)P2
# T1 sequence (Q14524 whole entry): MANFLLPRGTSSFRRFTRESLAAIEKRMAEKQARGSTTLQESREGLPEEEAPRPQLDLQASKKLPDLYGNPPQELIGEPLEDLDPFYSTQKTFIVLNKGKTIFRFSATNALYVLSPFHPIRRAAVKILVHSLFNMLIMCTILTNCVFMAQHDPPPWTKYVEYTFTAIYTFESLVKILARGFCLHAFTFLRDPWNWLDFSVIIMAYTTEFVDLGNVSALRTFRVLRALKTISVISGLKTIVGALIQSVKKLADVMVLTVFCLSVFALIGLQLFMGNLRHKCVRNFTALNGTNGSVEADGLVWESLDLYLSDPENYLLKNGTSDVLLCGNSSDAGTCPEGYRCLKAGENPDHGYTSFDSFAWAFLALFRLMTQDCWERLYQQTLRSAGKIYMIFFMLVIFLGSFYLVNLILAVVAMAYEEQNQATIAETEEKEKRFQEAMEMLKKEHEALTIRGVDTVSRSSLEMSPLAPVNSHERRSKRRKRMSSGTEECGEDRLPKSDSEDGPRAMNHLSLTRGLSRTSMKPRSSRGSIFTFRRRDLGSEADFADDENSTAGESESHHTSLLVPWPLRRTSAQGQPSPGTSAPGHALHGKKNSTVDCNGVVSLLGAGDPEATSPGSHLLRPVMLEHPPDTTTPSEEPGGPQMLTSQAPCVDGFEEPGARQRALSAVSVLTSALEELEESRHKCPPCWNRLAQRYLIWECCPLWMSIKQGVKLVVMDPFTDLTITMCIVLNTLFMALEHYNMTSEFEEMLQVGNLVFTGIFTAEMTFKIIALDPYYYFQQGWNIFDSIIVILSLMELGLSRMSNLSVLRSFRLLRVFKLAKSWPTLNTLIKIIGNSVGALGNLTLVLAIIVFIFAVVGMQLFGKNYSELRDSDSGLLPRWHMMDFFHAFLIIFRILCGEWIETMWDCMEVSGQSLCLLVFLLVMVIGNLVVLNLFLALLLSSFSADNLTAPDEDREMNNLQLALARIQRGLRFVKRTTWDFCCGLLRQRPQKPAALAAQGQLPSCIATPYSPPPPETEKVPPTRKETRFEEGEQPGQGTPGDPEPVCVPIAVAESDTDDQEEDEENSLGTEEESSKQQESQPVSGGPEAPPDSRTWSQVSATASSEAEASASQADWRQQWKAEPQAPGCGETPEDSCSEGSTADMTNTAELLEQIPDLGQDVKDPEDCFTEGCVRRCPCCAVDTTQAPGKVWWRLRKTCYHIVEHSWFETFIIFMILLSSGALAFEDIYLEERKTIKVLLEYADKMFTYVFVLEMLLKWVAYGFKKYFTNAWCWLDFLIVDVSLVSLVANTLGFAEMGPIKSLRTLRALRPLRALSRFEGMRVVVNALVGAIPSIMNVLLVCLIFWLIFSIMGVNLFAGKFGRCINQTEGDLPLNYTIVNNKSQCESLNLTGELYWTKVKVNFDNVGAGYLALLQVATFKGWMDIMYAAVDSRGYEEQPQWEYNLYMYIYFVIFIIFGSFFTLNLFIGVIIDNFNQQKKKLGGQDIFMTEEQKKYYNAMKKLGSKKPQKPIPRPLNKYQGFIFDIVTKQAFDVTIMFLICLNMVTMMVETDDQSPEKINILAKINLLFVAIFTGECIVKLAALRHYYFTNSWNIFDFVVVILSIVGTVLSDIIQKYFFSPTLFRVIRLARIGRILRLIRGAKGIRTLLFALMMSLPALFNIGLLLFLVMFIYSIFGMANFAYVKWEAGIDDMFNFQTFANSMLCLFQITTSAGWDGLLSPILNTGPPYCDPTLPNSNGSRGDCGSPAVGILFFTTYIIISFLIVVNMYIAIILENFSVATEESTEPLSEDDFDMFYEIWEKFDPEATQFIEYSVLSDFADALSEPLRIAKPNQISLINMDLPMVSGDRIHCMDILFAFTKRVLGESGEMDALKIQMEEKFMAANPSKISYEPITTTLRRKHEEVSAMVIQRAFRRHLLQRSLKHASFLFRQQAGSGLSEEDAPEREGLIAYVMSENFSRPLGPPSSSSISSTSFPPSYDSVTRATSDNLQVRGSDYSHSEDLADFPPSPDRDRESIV
structure (smiles),measurement,setting,value
CCCCCCCC(=O)OC[C@H](COP(=O)(O)O[C@@H]1[C@H](O)[C@H](O)[C@@H](OP(=O)(O)O)[C@H](OP(=O)(O)O)[C@H]1O)OC(=O)CCCCCCC [diC8-PIP2],effect on CRY2-5POCRL (CRY2-5P) dephosphorylation effects,[1],partially opposes; also recorded: partially reverses
same,"effect on CRY2-5POCRL/Sac2 dephosphorylation effects (activation, SSI)",[1],partially opposes
same,left shift in the I-V relationship,"CRY2-5POCRL + CRY2-Sac2, BL vs before BL",−1.87 mV
same,shift in V½SSI,[2],−9.1±1.62 mV
same,shift in V½act,[2],−1.87±1.52 mV
same,V½SSI,"CRY2-5POCRL + CRY2-Sac2, BL",−80.48±1.75 mV
same,V½act,"CRY2-5POCRL + CRY2-Sac2, BL",−53.17±1.49 mV
same,current density,"CRY2-5POCRL + CRY2-Sac2, BL",−203.83±59.93 pA/pF
same,V½SSI,[3],−71.75±1.84 mV
same,V½act,[3],−51.30±1.7 mV
same,effect on changes in window current,"CRY2-5POCRL + CRY2-Sac2, diC8PI(4,5)P2",does not oppose
same,difference in V½act,"CRY2-5POCRL + CRY2-Sac2, diC8PI(4,5)P2 enriched before BL vs BL without diC8PI(4,5)P2",−6.518 mV
same,difference in V½SSI,"CRY2-5POCRL + CRY2-Sac2, diC8PI(4,5)P2 enriched vs BL without diC8PI(4,5)P2",−8.73±2.61
same,current density,"CRY2-5POCRL + CRY2-Sac2, without BL",−80.94±28.21 pA/pF
same,shift in V½SSI,"CRY2-5POCRL, BL vs control",−0.9383±2.01 mV
same,shift in V½act,"CRY2-5POCRL, BL vs control",−8.61±0.77 mV
same,V½SSI,"CRY2-5POCRL, BL",−72.13±1.53 mV
same,V½act,"CRY2-5POCRL, BL",−55.90±2.00 mV
same,left shift in the I-V relationship,"CRY2-5POCRL, BL",~8.61 mV
same,τinact,"CRY2-5POCRL, BL",1.68 ± 0.15 ms
same,ILATE,"CRY2-5POCRL, BL",0.64±0.25%
same,V½SSI,[4],−73.07±1.54 mV
same,V½act,[4],−47.29±1.77 mV
same,τinact,[4],1.24 ± 0.3 ms
same,ILATE,[4],0.08±0.025%
same,difference in V½act,"CRY2-5POCRL, diC8PI(4,5)P2 enriched before BL vs BL without diC8PI(4,5)P2",~6.768±2.420 mV
same,difference in ILATE,[5],2.139±0.5794
same,difference in V½SSI,[5],−6.518 mV
same,difference in τinact,[5],1.345 ± 0.3918 ms
same,effect on CRY2-PJ dephosphorylation effect on voltage-dependence of inactivation (SSI),"diC8PI(4,5)P2 enriched vs depleted",opposed; also recorded: partially opposes
same,effect on CRY2-PJ dephosphorylation effects on Nav1.5,"diC8PI(4,5)P2 in pipette",did not oppose; also recorded: does not oppose
